Source: patent US20240325451A1, “METHODS OF INDUCING ORGAN TRANSPLANTATION IMMUNE TOLERANCE AND ASSOCIATED COMPOSITIONS AND METHODS” (CITY OF HOPE, priority 2023, published 2024)

System: donor-type and host-type T, B and myeloid cells
Assay: Mixed chimerism status by flow cytometry
Settings: PB and SPL of Foxp3DTR MCs

## diphtheria toxin [DT]
  MC status before and after treatment: did not have significant impact
